The source made the active and inactive calls.
What was measured:
[1] = miR-122 activators in hepatoma reporter cells, dose response, cell-based, Huh7 psiCHECK-miR122, Renilla luciferase, cherry-picked (AID 651956); format: functional;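 further: huh7 hepatoma cells stably carrying a psiCHECK-2 miR-122 sensor plasmid; renilla luciferase signal reporting endogenous miR-122 activity after 48 h compound exposure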
[2] = molecular target: Adenosylmethionine-8-amino-7-oxononanoate aminotransferase (Mycobacterium tuberculosis, UniProt P9WQ81); assay: Mycobacterium tuberculosis BioA enzyme inhibitor Measured in Biochemical System Using Plate Reader - 2163-02_Inhibitor_Dose_CherryPick_Activity.; format: functional, Mycobacterium tuberculosis UT205
[3] = molecular target: T1, Sentrin-specific protease 1 (Homo sapiens, UniProt Q9P0U3); assay: Dose response confirmation of small molecule inhibitors of the catalytic domain of the SUMO protease, SENP1 in a FRET assay.; format: functional; settings: read-out: IC50_Mean
T1 sequence (Q9P0U3 whole entry): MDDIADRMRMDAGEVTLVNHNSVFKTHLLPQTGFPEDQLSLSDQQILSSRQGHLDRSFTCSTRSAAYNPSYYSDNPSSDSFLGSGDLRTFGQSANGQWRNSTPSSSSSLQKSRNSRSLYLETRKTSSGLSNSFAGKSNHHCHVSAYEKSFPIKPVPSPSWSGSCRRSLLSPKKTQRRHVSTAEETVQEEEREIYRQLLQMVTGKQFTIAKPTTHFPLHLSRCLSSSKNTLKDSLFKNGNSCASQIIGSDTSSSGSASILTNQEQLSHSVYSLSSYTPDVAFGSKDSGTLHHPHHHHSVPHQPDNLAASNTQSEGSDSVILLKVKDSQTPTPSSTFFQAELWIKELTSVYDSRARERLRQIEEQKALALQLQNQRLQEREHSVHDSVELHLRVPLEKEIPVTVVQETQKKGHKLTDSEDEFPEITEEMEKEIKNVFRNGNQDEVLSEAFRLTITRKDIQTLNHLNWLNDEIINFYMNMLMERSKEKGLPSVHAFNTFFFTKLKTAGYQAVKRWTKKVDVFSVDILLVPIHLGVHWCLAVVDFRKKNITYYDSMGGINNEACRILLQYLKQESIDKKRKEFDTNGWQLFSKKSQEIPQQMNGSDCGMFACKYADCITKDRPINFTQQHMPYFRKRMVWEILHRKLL

Vero = assay: cells; format: functional; settings: Chlorocebus sabaeus
[4] = molecular target: T1, Sentrin-specific protease 1; assay: potency of human SENP1 inhibitors, dose response, biochemical, kinetic FRET (AID 651697); format: functional; settings: read-out: IC50_Mean
[5] = molecular target: T2, Dual specificity tyrosine-phosphorylation-regulated kinase 3 (Homo sapiens, UniProt O43781); format: functional;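 further: measured as one member of a broad kinase panel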
T2 sequence (O43781 whole entry): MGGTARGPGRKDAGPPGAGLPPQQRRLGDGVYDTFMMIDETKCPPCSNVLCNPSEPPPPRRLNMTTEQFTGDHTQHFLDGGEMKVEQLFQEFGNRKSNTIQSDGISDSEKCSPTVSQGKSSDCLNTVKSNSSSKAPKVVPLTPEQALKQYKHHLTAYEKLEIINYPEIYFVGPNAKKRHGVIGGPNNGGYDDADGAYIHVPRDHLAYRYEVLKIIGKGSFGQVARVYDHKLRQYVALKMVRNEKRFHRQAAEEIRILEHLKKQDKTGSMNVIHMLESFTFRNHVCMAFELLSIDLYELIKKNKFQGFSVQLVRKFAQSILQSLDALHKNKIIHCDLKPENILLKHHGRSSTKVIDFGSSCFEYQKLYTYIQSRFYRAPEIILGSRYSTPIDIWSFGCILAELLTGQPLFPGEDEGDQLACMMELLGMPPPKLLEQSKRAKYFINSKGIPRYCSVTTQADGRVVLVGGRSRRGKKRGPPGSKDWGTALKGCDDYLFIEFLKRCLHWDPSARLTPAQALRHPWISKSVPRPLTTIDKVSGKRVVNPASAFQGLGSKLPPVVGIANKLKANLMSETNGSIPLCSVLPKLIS

[6] = molecular target: Protein kinase C gamma type (Homo sapiens, UniProt P05129); format: functional
[7] = molecular target: Cyclin-dependent kinase 1 (Homo sapiens, UniProt P06493); format: functional;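 further: Kinome-wide panel profiling, with the target listed as panel member CDC2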
[8] = molecular target: MAP kinase-activated protein kinase 3 (Homo sapiens, UniProt Q16644); format: functional;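 further: value comes from a kinome-wide profiling panel in which MAPKAPK3 is one of the panel members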
[9] = molecular target: T3, Testis-specific serine/threonine-protein kinase 2 (Homo sapiens, UniProt Q96PF2); format: functional;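 further: part of the Navigating the Kinome panel, target entry STK22B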
T3 sequence (Q96PF2 whole entry): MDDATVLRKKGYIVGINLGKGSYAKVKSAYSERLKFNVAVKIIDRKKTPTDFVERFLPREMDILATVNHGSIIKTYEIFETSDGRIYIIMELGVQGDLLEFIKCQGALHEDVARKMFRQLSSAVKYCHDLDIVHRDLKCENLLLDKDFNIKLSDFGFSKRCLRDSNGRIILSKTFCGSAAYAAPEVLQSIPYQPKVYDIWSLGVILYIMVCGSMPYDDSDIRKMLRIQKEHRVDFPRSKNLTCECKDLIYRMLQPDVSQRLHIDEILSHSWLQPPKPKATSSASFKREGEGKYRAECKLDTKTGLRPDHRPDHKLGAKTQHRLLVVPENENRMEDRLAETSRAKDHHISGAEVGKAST

[10] = molecular target: T4, Protein kinase C zeta type (Homo sapiens, UniProt Q05513); format: functional;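 further: measured as one member of a broad kinase profiling panel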
T4 sequence (Q05513 whole entry): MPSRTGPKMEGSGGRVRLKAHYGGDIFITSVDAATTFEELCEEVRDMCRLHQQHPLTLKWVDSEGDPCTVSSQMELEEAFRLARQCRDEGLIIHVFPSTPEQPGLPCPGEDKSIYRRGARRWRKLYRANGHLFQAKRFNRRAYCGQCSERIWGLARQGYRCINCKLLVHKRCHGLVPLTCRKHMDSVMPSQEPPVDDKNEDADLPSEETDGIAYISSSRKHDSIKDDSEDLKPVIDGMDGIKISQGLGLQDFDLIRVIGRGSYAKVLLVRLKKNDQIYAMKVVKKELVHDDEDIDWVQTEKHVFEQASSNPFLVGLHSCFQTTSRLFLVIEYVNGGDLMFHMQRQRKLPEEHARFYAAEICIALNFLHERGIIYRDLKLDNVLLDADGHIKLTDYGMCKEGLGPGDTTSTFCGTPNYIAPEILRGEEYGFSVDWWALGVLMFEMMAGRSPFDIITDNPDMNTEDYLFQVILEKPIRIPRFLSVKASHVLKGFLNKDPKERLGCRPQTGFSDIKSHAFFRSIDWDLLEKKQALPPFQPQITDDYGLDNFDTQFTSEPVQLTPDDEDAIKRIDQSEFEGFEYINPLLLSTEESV

[11] = molecular target: T5, Lymphokine-activated killer T-cell-originated protein kinase (Homo sapiens, UniProt Q96KB5); format: functional;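 further: value comes from a kinase panel screen in which TOPK was one of the panel members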
T5 sequence (Q96KB5 whole entry): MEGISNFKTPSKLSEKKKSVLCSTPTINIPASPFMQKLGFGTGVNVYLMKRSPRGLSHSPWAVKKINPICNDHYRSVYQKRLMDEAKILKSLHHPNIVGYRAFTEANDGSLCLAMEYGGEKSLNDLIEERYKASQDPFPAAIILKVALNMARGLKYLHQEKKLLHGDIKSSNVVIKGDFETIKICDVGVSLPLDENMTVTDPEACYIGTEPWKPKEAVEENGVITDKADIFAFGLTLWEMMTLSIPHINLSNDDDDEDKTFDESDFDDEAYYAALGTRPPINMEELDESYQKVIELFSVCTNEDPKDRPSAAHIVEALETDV

[12] = molecular target: PAS domain-containing serine/threonine-protein kinase (Homo sapiens, UniProt Q96RG2); format: functional
Cytochrome P450 3A4 = Cytochrome P450 3A4 (Homo sapiens, UniProt P08684); settings: Potency;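 further: confirmatory qHTS run detecting inhibitors and substrates of CYP3A4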
[13] = molecular target: T6, Aryl hydrocarbon receptor (Homo sapiens, UniProt P35869); settings: Potency;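 further: confirmatory quantitative high-throughput screen measuring activation of the AhR signaling pathway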
T6 sequence (P35869 whole entry): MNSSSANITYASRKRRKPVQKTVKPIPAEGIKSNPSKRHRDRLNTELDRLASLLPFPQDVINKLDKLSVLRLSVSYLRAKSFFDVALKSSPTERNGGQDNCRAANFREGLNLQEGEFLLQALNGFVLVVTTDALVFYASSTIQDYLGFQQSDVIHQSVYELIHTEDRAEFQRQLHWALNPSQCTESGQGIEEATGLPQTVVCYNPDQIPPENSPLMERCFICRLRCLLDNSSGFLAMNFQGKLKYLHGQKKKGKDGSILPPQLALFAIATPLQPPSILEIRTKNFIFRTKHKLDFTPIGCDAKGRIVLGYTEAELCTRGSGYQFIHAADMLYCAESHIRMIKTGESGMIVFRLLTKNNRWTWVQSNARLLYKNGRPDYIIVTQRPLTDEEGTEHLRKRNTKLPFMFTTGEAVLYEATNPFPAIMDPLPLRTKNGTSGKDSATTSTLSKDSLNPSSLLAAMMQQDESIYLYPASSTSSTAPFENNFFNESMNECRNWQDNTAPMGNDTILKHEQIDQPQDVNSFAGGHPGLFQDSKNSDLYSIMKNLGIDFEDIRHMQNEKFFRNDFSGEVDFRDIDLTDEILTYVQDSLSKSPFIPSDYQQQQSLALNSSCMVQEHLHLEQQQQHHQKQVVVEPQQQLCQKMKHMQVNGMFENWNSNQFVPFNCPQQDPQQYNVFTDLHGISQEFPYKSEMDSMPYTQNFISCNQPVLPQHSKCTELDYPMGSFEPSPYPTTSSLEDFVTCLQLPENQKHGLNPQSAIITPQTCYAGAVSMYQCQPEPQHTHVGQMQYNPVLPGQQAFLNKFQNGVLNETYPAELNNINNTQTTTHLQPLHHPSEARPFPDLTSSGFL

[14] = cytotoxicity toward DRD oncogenic fibroblasts, dose response, cell-based, non-viral oncogenic, luminescence (AID 1934); format: functional; settings: Homo sapiens
BJ [15] = assay: cytotoxicity toward BJ-TERT-LT-ST fibroblasts, dose response, cell-based, RAS-independent, luminescence (AID 1935); format: functional; settings: Homo sapiens;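 further: BJ fibroblasts immortalized with TERT plus LT and ST oncogenes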
BJ [16] = assay: cells; format: functional, cell-based; settings: Homo sapiens
BJ [17] = assay: cytotoxicity toward BJ-TERT fibroblasts, dose response, cell-based, RAS-independent, luminescence (AID 1933); format: functional; settings: Homo sapiens
[18] = molecular target: T7, Mitochondrial peptide methionine sulfoxide reductase (Bos taurus, UniProt P54149); format: functional;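 further: absorbance read-out, biochemical high-throughput dose-response screen for MsrA inhibitors, confirmatory; recombinant bovine MsrA coupled to E. coli TrxB with NADPH and selenocystamine; potency is for inhibitors of MsrA activity on DMSO substrate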
T7 sequence (P54149 whole entry): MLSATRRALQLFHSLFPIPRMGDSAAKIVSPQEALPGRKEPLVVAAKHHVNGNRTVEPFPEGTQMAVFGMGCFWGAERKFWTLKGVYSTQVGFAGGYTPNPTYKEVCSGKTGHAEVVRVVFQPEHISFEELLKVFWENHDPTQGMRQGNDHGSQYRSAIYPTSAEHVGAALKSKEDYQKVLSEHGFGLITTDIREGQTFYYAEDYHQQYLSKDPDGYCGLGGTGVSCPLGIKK

Sequence of Adenosylmethionine-8-amino-7-oxononanoate aminotransferase (P9WQ81 whole entry, the tested form may be a part): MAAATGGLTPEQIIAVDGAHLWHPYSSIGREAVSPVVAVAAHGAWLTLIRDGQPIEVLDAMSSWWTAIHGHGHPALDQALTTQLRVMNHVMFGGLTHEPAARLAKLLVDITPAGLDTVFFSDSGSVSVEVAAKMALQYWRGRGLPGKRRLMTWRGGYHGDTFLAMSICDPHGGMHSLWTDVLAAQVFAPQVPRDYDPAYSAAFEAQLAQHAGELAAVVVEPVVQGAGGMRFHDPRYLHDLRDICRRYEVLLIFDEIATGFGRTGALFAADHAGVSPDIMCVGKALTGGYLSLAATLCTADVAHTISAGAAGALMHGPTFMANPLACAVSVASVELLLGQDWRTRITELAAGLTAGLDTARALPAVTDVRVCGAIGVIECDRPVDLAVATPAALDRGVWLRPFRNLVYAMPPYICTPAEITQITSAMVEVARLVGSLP
Sequence of Cyclin-dependent kinase 1 (P06493 whole entry): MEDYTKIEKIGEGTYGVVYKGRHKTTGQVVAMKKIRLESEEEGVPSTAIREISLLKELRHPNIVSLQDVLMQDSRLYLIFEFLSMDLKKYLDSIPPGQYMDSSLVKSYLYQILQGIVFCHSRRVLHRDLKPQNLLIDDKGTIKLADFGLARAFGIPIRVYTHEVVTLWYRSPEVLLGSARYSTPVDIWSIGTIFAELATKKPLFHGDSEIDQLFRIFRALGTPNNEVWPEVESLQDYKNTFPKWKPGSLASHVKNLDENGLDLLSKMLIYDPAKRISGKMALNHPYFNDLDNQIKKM
Sequence of MAP kinase-activated protein kinase 3 (Q16644 whole entry): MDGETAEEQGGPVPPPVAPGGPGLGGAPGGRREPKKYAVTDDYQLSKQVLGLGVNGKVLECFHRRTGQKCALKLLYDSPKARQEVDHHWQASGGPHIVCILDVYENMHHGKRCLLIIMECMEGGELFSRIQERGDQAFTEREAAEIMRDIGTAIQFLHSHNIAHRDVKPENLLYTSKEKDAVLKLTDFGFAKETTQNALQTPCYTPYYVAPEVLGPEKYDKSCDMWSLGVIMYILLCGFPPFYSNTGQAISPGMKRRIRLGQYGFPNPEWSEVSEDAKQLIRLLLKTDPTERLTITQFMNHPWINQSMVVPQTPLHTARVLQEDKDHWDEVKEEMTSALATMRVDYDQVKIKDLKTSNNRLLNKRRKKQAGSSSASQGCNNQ
Sequence of Cytochrome P450 3A4 (P08684 whole entry): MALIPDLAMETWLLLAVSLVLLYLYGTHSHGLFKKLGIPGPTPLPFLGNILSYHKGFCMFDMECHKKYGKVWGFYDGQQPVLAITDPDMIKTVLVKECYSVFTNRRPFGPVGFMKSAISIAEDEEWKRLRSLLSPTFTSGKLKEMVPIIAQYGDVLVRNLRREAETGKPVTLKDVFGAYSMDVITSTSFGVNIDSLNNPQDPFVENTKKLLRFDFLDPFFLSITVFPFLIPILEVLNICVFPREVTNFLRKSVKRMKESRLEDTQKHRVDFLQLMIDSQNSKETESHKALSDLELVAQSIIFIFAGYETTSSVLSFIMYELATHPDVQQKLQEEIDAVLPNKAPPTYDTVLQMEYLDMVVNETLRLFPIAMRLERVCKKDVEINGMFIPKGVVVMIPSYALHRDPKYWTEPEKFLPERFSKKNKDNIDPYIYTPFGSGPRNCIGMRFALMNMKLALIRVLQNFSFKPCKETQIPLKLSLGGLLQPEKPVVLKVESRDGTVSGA
Sequence of PAS domain-containing serine/threonine-protein kinase (Q96RG2 whole entry, the tested form may be a part): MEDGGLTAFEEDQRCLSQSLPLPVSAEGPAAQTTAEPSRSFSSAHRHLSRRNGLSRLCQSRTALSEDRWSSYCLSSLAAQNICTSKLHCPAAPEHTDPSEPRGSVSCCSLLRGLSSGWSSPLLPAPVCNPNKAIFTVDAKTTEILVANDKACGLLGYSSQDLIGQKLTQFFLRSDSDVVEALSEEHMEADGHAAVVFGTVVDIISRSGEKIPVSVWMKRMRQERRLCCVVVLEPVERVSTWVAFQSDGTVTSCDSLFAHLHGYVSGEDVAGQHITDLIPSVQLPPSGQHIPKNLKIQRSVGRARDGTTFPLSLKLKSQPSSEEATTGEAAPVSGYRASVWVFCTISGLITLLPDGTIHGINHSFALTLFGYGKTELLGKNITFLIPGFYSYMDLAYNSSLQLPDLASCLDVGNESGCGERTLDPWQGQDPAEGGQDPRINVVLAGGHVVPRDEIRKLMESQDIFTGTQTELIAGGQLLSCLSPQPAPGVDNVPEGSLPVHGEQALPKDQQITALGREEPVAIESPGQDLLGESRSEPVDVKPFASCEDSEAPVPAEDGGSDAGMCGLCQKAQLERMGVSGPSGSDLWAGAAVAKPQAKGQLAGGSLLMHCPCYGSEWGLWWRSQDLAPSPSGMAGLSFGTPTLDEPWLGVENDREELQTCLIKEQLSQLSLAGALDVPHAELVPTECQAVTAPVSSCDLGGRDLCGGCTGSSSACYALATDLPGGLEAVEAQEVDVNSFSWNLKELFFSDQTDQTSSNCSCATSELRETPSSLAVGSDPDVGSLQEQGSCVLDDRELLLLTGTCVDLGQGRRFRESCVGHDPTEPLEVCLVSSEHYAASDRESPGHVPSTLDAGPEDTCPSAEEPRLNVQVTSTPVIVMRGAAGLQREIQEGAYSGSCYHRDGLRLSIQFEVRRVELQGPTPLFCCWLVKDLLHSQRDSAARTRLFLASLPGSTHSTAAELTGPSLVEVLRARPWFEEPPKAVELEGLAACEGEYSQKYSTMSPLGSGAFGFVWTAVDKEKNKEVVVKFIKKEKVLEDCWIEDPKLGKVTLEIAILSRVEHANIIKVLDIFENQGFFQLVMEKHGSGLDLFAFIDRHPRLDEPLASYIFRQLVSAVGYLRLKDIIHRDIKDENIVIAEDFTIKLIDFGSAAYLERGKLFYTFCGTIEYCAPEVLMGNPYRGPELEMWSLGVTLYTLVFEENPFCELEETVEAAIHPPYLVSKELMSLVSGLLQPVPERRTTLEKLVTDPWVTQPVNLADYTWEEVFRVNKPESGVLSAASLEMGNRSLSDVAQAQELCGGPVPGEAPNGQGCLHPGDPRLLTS

**Q.** Which AC50 [1] does the source give for CNC(=O)C[C@@H]1CC[C@H]2[C@@H](COc3ccc(NC(=O)c4cccc(OC)c4)cc3C(=O)N2C)O1 here?
**A.** 54.9 µM (active)

**Q.** For COc1cc2cnc(-c3cccnc3)cc2cc1OC, which AC50 [2] is on record?
**A.** 11.2 µM (active)

**Q.** With O=c1c2ccccc2nc(/C=C/c2cc(Br)ccc2O)n1CCO as the compound, how does the IC50 [3] read?
**A.** 6.14 µM (active)

**Q.** What about the CC50 (Vero) of the same compound?
**A.** 15.2 µM (active)

**Q.** What about the IC50 [4] of the same compound?
**A.** 8.91 µM (active)

**Q.** Which Ki [5] does the source give for CN1CCN(c2ccc3nc(-c4c(N)c5c(F)cccc5[nH]c4=O)[nH]c3c2)CC1 [DOVITINIB] here?
**A.** > 6.31 µM (inactive)

**Q.** And the Ki [6]?
**A.** > 7.94 µM (inactive)

**Q.** What about the Ki [7] of the same compound?
**A.** > 7.94 µM (inactive)

**Q.** What about the Ki [8] of the same compound?
**A.** > 10 µM (inactive)

**Q.** And the Ki [9]?
**A.** > 1.58 µM (inactive)

**Q.** What about the Ki [10] of the same compound?
**A.** > 7.94 µM (inactive)

**Q.** What about the Ki [11] of the same compound?
**A.** > 10 µM (inactive)

**Q.** And the Ki [12]?
**A.** > 1.58 µM (inactive)

**Q.** What does the source list for COc1ccc(C(=O)Nc2ccccc2)cc1[N+](=O)[O-]?
**A.** AC50 (Cytochrome P450 3A4): 15.8 µM (inconclusive); AC50 [13]: 44.7 µM (inconclusive)

**Q.** What does the source list for CC(=O)c1ccc(N2CCN(c3ncccn3)CC2)c([N+](=O)[O-])c1?
**A.** EC50 [14]: > 150 µM (not active); EC50 (BJ [15]): > 150 µM (inconclusive); EC50 (BJ [16]): > 150 µM (not active); EC50 (BJ [17]): > 150 µM (not active); AC50 [2]: 1.02 µM (active)

**Q.** Which AC50 [13] does the source give for CC(C)(C)[C@@H](O)/C(=C\c1ccc(Cl)cc1Cl)n1cncn1 here?
**A.** 70.8 µM (inconclusive)

**Q.** Which IC50 [18] does the source give for CSc1nc2[nH]c3c(c2c2nnnn12)CCCC3 here?
**A.** 155 µM (inactive)
